Measured values from patent publication US20200055839A1 (priority 2017, published 2020).

test system: NL-RLuc virus; experiment: Inhibition of HIV replication (NL-RLuc virus, luciferase readout in MT-2 cells); assay type: cell-based; conditions: Human immunodeficiency virus 1, MT2, 120 h, MT-2 cells infected with NL-RLuc virus, 5 days of incubation, 10% FBS, at least 2 experiments
Outline: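 MT-2 cells infected with NL4-3-derived virus carrying Renilla luciferase in place of part of nef, grown 5 days with serial compound dilutions in RPMI 1640/10% FBS. Virus growth read as luciferase expression. EC50 from median effect equation, at least 2 experiments.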

First: Cc1cc(-c2cnc(C)c([C@H](OC(C)(C)C)C(=O)O)c2N2CCC(C)(C)CC2)nnc1OCCc1ccc(F)cc1 [Example 268, (S)-2-(tert-Butoxy)-2-(4-(4,4-dimethylpiperidin-1-yl)-5-(6-(4-fluorophenethoxy)-5-methylpyridazin-3-yl)-2-methylpyridin-3-yl)acetic acid]
Second: CCc1ncc(-c2ccc(OCCc3ccc(F)cc3)cn2)c(N2CCC(C)(C)CC2)c1[C@H](OC(C)(C)C)C(=O)O [Example 270]
The EC50 of the first is 83-fold higher: 50 nM for the first, 0.6 nM for the second.

First: CC1(C)CCN(c2c(-c3ccc(OCCc4ccc(F)cc4)cn3)cnc(CO)c2[C@H](OC(C)(C)C)C(=O)O)CC1 [Example 269, (S)-2-(tert-Butoxy)-2-(4′-(4,4-dimethylpiperidin-1-yl)-5-(4-fluorophenethoxy)-6′-(hydroxymethyl)-[2, 3′-bipyridin]-5′-yl)acetic acid]
Second: Cc1ncc(-c2ccc(OCCc3ccc(F)cc3)cn2)c(N2CCC(C)(C)CC2)c1[C@H](OC(C)C)C(=O)O [Example 271, (S)-2-(4′-(4,4-Dimethylpiperidin-1-yl)-5-(4-fluorophenethoxy)-6′-methyl-[2, 3′-bipyridin]-5′-yl)-2-isopropoxyacetic acid]
The EC50 of the first is 3-fold higher: 9 nM for the first, 3 nM for the second.

First: Cc1ncc(-c2ccc(COc3ccccc3)cn2)c(N2CCC(C)(C)CC2)c1[C@H](OC(C)(C)C)C(=O)O [Example 272, (S)-2-(tert-Butoxy)-2-(4′-(4,4-dimethylpiperidin-1-yl)-6′-methyl-5-(phenoxymethyl)-[2, 3′-bipyridin]-5′-yl)acetic acid]
Second: Cc1ncc(-c2ccc(CCC(C)C)cn2)c(N2CCC(C)(C)CC2)c1[C@H](OC(C)(C)C)C(=O)O [Example 273, (S)-2-(tert-Butoxy)-2-(4′-(4,4-dimethylpiperidin-1-yl)-5-isopentyl-6′-methyl-[2, 3′-bipyridin]-5′-yl)acetic acid]
The EC50 of the first is 2-fold lower: 2 nM for the first, 4 nM for the second.

`Cc1ncc(-c2ccc(C(F)(F)CC(C)C)cn2)c(N2CCC(C)(C)CC2)c1[C@H](OC(C)(C)C)C(=O)O` [Example 274, (S)-2-(tert-Butoxy)-2-(5-(1,1-difluoro-3-methylbutyl)-4′-(4,4-dimethylpiperidin-1-yl)-6′-methyl-[2, 3′-bipyridin]-5′-yl)acetic acid] and `CCCCC(F)(F)c1ccc(-c2cnc(C)c([C@H](OC(C)(C)C)C(=O)O)c2N2CCC(C)(C)CC2)nc1` [Example 276, (S)-2-(tert-Butoxy)-2-(5-(1,1-difluoropentyl)-4′-(4,4-dimethylpiperidin-1-yl)-6′-methyl-[2, 3′-bipyridin]-5′-yl)acetic acid] are within 1.5-fold of each other in EC50: 16 nM for the first, 14 nM for the second.

`Cc1ncc(-c2ccc(OCC(C)C)c(C(F)(F)F)n2)c(N2CCC(C)(C)CC2)c1[C@H](OC(C)(C)C)C(=O)O` [Example 275, (S)-2-(tert-Butoxy)-2-(4′-(4,4-dimethylpiperidin-1-yl)-5-isobutoxy-6′-methyl-6-(trifluoromethyl)-[2, 3′-bipyridin]-5′-yl)acetic acid] and `CCc1ncc(-c2ccc(OCC(C)C)cn2)c(N2CCC(C)(C)CC2)c1[C@H](OC(C)(C)C)C(=O)O` [Example 277, (S)-2-(tert-Butoxy)-2-(4′-(4,4-dimethylpiperidin-1-yl)-6′-ethyl-5-isobutoxy-[2, 3′-bipyridin]-5′-yl)acetic acid] are within 1.5-fold of each other in EC50: 8 nM for the first, 6 nM for the second.

Compared with `CC(C)COc1ccc(-c2cnc(CF)c([C@H](OC(C)(C)C)C(=O)O)c2N2CCC(C)(C)CC2)nc1` [Example 278, (S)-2-(tert-Butoxy)-2-(4′-(4,4-dimethylpiperidin-1-yl)-6′-(fluoromethyl)-5-isobutoxy-[2, 3′-bipyridin]-5′-yl)acetic acid], `CCCCOc1ccc(-c2cnc(CC)c([C@H](OC(C)(C)C)C(=O)O)c2N2CCC(C)(C)CC2)nc1` [Example 279, (S)-2-(tert-Butoxy)-2-(5-butoxy-4′-(4,4-dimethylpiperidin-1-yl)-6′-ethyl-[2, 3′-bipyridin]-5′-yl)acetic acid] is 1.5-fold higher in EC50: 4 nM for the first, 6 nM for the second. The first is the more potent here.
